Calls of active or inactive are those of the source. The rule behind the calls is not given here.

Among the data in PubChem BioAssay AID588807 (The Scripps Research Institute Molecular Screening Center, 2011) are inhibition values, retold here.

Assay in all cases: competitive ABPP of Abhd10 versus anti-targets – biochemical, fluorescence, gel-based, mouse proteome, selectivity assay for PME-1 inhibitor project, late-stage follow-up (AID 588807)
Test [1] has as its system Magl. The following applies: anti-target, stronger effect = higher value.
Test [2] addresses Monoacylglycerol lipase ABHD6 (Mus musculus) (UniProt Q8R2Y0). The following applies: anti-target, stronger effect = higher value.
The test system of test [3] is APEH. The note with it: anti-target, stronger effect = higher value.
Test [4] addresses Palmitoyl-protein thioesterase ABHD10, mitochondrial (Mus musculus) (UniProt Q6PE15). The following applies: stronger effect = higher value.
The target of test [5] is Prolyl endopeptidase (Mus musculus) (UniProt Q9QUR6). The following applies: PREP, anti-target, stronger effect = higher value.
Test [6] relates to Kiaa1363. The note with it: anti-target, at 10 µM, stronger effect = higher value.

Chain of Palmitoyl-protein thioesterase ABHD10, mitochondrial (Mus musculus) (Q6PE15 whole entry, looked up): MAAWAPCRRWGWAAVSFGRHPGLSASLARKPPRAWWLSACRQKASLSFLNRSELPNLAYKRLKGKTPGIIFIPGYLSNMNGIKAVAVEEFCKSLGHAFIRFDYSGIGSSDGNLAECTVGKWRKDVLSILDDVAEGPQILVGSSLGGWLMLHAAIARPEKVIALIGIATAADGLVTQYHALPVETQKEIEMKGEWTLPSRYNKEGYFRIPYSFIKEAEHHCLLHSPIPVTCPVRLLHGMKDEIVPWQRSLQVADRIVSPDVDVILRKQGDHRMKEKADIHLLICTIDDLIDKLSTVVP
Chain of Monoacylglycerol lipase ABHD6 (Mus musculus) (Q8R2Y0 whole entry, looked up): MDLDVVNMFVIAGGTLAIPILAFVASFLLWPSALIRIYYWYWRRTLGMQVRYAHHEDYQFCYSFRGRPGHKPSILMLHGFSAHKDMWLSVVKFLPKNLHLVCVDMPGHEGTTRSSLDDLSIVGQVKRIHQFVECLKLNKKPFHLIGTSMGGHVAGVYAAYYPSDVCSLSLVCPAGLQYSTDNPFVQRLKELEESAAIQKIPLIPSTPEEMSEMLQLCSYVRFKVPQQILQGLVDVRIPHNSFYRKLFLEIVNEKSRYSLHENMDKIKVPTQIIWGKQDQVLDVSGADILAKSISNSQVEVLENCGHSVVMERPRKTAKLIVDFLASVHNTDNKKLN
Chain of Prolyl endopeptidase (Mus musculus) (Q9QUR6 whole entry, looked up): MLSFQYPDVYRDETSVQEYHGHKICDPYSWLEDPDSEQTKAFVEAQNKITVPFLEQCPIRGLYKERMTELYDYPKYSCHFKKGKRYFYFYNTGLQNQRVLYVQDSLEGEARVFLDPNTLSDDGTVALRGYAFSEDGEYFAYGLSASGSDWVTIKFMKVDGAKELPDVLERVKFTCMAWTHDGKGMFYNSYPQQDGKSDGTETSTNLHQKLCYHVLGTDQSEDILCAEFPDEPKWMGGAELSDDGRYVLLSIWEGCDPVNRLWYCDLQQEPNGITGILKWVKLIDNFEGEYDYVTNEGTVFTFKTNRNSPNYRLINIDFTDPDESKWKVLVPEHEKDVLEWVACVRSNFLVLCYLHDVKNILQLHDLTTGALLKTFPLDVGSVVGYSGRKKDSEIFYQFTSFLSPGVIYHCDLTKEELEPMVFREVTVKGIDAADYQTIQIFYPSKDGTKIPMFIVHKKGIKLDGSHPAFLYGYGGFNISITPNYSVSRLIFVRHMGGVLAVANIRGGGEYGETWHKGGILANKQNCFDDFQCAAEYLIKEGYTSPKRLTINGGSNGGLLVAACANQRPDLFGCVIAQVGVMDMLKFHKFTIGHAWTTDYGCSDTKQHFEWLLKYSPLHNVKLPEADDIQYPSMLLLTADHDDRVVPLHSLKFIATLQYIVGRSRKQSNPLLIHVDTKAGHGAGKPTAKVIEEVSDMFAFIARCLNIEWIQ

What is called inhibition is how much of the control response was suppressed. With `CCCOC(=O)N1C(=O)C(CC)(c2cccc(C)c2)N1C(=O)OCCC` (stereo not drawn), the inhibition in test [1] (at 10 µM) was 25% (inactive); in test [1] (inhibition, at 1 µM), 10%; in test [2] (at 10 µM), 70% (inactive); in test [3] (at 10 µM), 10% (inactive); in test [4] (at 10 µM) it was 100% (inactive); in test [4] (inhibition, at 0.1 µM) it was 10%. Also, the inhibition is 95% in test [4] (inhibition, at 1 µM); 60% (inactive) in test [5] (at 10 µM); 20% in test [5] (inhibition, at 1 µM); 0% (inactive) in test [6].

Turning to `CC[C@@]1(c2ccc(OC)cc2)C(=O)N(C(=O)OC(C)C)N1C(=O)OC(C)C`, the inhibition was 10% (inactive) in test [1] (at 10 µM); 10% (inactive) in test [2] (at 10 µM); 70% (inactive) in test [3] (at 10 µM); 100% (inactive) in test [4] (at 10 µM); 95% in test [4] (inhibition, at 1 µM); 30% (inactive) in test [5] (at 10 µM). Besides, the inhibition in test [6] was 40% (inactive).

With `CC[C@@]1(c2cccc(F)c2)C(=O)N(C(=O)OC(C)C)N1C(=O)OC(C)C`, the inhibition was 10% (inactive) in test [1] (at 10 µM); 0% (inactive) in test [2] (at 10 µM); 100% (inactive) in test [3] (at 10 µM); 20% in test [3] (inhibition, at 1 µM); 90% (inactive) in test [4] (at 10 µM); 40% in test [4] (inhibition, at 0.1 µM). In addition, the inhibition in test [4] (inhibition, at 1 µM) was 85%; in test [5] (at 10 µM), 0% (inactive); in test [6] it was 15% (inactive).

`CCOC(=O)N1C(=O)[C@@](C)(c2cccc(C)c2)N1C(=O)OCC`: the inhibition in test [1] (at 10 µM) is 0% (inactive); in test [2] (at 10 µM), 0% (inactive); in test [3] (at 10 µM), 45% (inactive); in test [4] (at 10 µM), 100%; in test [4] (inhibition, at 0.1 µM), 60%; in test [4] (inhibition, at 1 µM), 80%. Further, the inhibition in test [5] (at 10 µM) and in test [6] was 0% (inactive) throughout.

On to `C=CCOC(=O)N1C(=O)[C@@](CC)(c2cccc(C)c2)N1C(=O)OCC=C`, for which the inhibition was 50% (inactive) in test [1] (at 10 µM); 75% (inactive) in test [2] (at 10 µM); 20% (inactive) in test [3] (at 10 µM); 90% (inactive) in test [4] (at 10 µM); 35% in test [4] (inhibition, at 0.1 µM); 85% in test [4] (inhibition, at 1 µM). Besides, the inhibition in test [5] (at 10 µM) was 65% (inactive); in test [5] (inhibition, at 1 µM), 10%; in test [6], 20% (inactive).

Regarding `CCCOC(=O)N1C(=O)[C@@](CC)(c2ccc(C)cc2)N1C(=O)OCCC`, the inhibition in test [1] (at 10 µM) was 80% (inactive); in test [2] (at 10 µM), 85% (inactive); in test [2] (inhibition, at 0.1 µM), 10%; in test [2] (inhibition, at 1 µM), 25%; in test [3] (at 10 µM), 0% (inactive); in test [4] (at 10 µM), 95%. The inhibition was 95% in test [4] (inhibition, at 0.1 µM); 95% in test [4] (inhibition, at 1 µM); 65% (inactive) in test [5] (at 10 µM); 25% in test [5] (inhibition, at 1 µM); 25% (inactive) in test [6].

`CC[C@@]1(c2cccc(C)c2)C(=O)N(C(=O)OC(C)C)N1C(=O)OC`: the inhibition in test [1] (at 10 µM) was 0% (inactive); in test [2] (at 10 µM) it was 0% (inactive); in test [3] (at 10 µM) it was 0% (inactive); in test [4] (at 10 µM), 60% (inactive); in test [4] (inhibition, at 0.1 µM), 10%; in test [4] (inhibition, at 1 µM) it was 25%. Moreover, the inhibition in test [5] (at 10 µM) is 30% (inactive); in test [5] (inhibition, at 1 µM), 10%; in test [6], 0% (inactive).

For the compound `CC[C@@]1(c2cccc(C)c2)C(=O)N(C(=O)OC(C)(C)C)N1C(=O)OC(C)(C)C`, the inhibition was 0% (inactive) in test [1] (at 10 µM); 10% (inactive) in test [2] (at 10 µM); 0% (inactive) in test [3] (at 10 µM); 70% (inactive) in test [4] (at 10 µM); 10% in test [4] (inhibition, at 1 µM); 0% (inactive) in test [5] (at 10 µM). The inhibition in test [6] is 0% (inactive).

As to `CC[C@@]1(c2ccccc2)C(=O)N(C(=O)OC(C)C)N1C(=O)OC(C)C`, the inhibition in test [1] (at 10 µM) was 0% (inactive); in test [2] (at 10 µM), 65% (inactive); in test [3] (at 10 µM), 85% (inactive); in test [3] (inhibition, at 0.1 µM), 10%; in test [3] (inhibition, at 1 µM), 10%; in test [4] (at 10 µM), 100%. In addition, the inhibition in test [4] (inhibition, at 0.1 µM) was 70%; in test [4] (inhibition, at 1 µM), 90%; in test [5] (at 10 µM), 70% (inactive); in test [5] (inhibition, at 1 µM), 10%; in test [6] it was 0% (inactive).

As for `CC[C@@]1(c2ccc(Cl)c(Cl)c2)C(=O)N(C(=O)OC)N1C(=O)OC`, the inhibition is 10% (inactive) in test [1] (at 10 µM); 0% (inactive) in test [2] (at 10 µM); 55% (inactive) in test [3] (at 10 µM); 90% (inactive) in test [4] (at 10 µM); 20% in test [4] (inhibition, at 0.1 µM); 70% in test [4] (inhibition, at 1 µM). For the same compound, the inhibition in test [5] (at 10 µM) is 25% (inactive); in test [6], 0% (inactive).

For the compound `CC[C@]1(c2ccc(C)cc2)C(=O)N(C(=O)OC(C)C)N1C(=O)OC(C)C`, the inhibition is 0% (inactive) in test [1] (at 10 µM); 0% (inactive) in test [2] (at 10 µM); 100% (inactive) in test [3] (at 10 µM); 30% in test [3] (inhibition, at 1 µM); 45% (inactive) in test [4] (at 10 µM); 0% (inactive) in test [5] (at 10 µM). In test [6], the inhibition is 0% (inactive).

Take `CCOC(=O)N1C(=O)[C@@](CC)(c2cccc(C)c2)N1C(=O)OCC`: the inhibition in test [1] (at 10 µM) is 45% (inactive); in test [2] (at 10 µM), 65% (inactive); in test [3] (at 10 µM), 70% (inactive); in test [4] (at 10 µM) it was 100%; in test [4] (inhibition, at 0.1 µM), 75%; in test [4] (inhibition, at 1 µM), 100%. Further, the inhibition in test [5] (at 10 µM) is 100% (inactive); in test [5] (inhibition, at 0.1 µM), 20%; in test [5] (inhibition, at 1 µM), 45%; in test [6], 25% (inactive).

Regarding `CCC[C@@]1(c2cccc(C)c2)C(=O)N(C(=O)OC)N1C(=O)OC`, the inhibition in test [1] (at 10 µM) was 0% (inactive); in test [2] (at 10 µM) it was 0% (inactive); in test [3] (at 10 µM), 0% (inactive); in test [4] (at 10 µM), 10% (inactive); in test [5] (at 10 µM) it was 0% (inactive); in test [6], 0% (inactive).

As for `CC[C@@]1(c2cccc(C)c2)C(=O)N(C(=O)OCC(Cl)(Cl)Cl)N1C(=O)OCC(Cl)(Cl)Cl`, the inhibition was 0% (inactive) in test [1] (at 10 µM); 0% (inactive) in test [2] (at 10 µM); 0% (inactive) in test [3] (at 10 µM); 20% (inactive) in test [4] (at 10 µM); 10% (inactive) in test [5] (at 10 µM); 0% (inactive) in test [6].

With `CC[C@@]1(c2ccccc2C)C(=O)N(C(=O)OC)N1C(=O)OC`, the inhibition in test [1] (at 10 µM) is 10% (inactive); in test [1] (inhibition, at 0.1 µM), 10%; in test [2] (at 10 µM), 40% (inactive); in test [3] (at 10 µM), 55% (inactive); in test [4] (at 10 µM) it was 90% (inactive); in test [4] (inhibition, at 0.1 µM) it was 20%. For the same compound, the inhibition in test [4] (inhibition, at 1 µM) is 15%; in test [5] (at 10 µM) it was 70% (inactive); in test [5] (inhibition, at 0.1 µM) it was 20%; in test [6] it was 25% (inactive).
